{"source": "patent US11040026B2", "about": "“Muscarinic M1 receptor positive allosteric modulators” (SUVEN LIFE SCIENCES LIMITED, priority 2016, dated 2021)", "note": "Structures can show the parent of a compound that is named as a salt."}
{"target": "T1, muscarinic M1 receptor (Homo sapiens, UniProt P11229)", "T1 sequence (P11229 1-460)": "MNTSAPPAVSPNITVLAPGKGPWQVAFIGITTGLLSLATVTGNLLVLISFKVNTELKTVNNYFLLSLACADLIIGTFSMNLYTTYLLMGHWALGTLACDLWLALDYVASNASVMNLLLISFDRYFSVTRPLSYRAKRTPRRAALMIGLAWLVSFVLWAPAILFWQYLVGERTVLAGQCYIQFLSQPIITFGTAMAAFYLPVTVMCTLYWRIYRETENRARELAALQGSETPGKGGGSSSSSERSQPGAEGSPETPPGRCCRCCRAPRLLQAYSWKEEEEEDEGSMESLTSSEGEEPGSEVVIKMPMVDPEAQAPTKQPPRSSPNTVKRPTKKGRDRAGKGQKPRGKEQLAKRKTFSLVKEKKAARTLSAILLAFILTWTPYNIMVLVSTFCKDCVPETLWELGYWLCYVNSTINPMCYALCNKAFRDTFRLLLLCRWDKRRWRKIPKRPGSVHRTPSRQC", "assay": "Allosteric potency EC50 for muscarinic M1 receptor (CHO pCRE-Luc reporter assay)", "assay_type": "cell-based", "conditions": "in presence of EC20 of acetylcholine; CHO cells, luciferase reporter, 4 hours", "method": "Determination of Allosteric Potency EC50 Values for Muscarinic M1 Receptor:\nA stable CHO cell line expressing recombinant human Muscarinic M1 receptor and pCRE-Luc reporter system was used for cell-based assay. The assay offers a non-radioactive based approach to determine binding of a compound to GPCRs. In this specific assay, the level of intracellular cyclic AMP which is modulated by activation or inhibition of the receptor is measured. The recombinant cells harbor luciferase reporter gene under the control of cyclic AMP response element.\nThe above cells were grown in 96 well clear bottom white plates in Hams F12 medium containing 10% fetal bovine serum (FBS). Prior to the addition of compounds or standard agonist, cells were serum starved overnight. Increasing concentrations of test compounds were added along with EC20 of acetylcholine in OptiMEM medium to the cells. The incubation was continued at 37° C. in CO2 incubator for 4 hours. Medium was removed and cells were washed with phosphate buffered saline. The cells were lysed and luciferase activity was measured in a Luminometer. Luminescence units were plotted against the compound concentrations using Graphpad software. EC50 values of the compounds were defined as the concentration required in stimulating the luciferase activity by 50% in presence of EC20 of acetylcholine and the results are provided in table 1.", "units": {"EC50": "nM"}}
{"smiles": "Cn1ccc2c(Cc3ccc(-c4cscn4)cc3)cc(C(=O)NC3CCOCC3O)nc21", "note": "(racemic) [Example 53, Racemic trans-N-(3-Hydroxytetrahydropyran-4-yl)-4-[4-(thiazol-4-yl)benzyl]-1-methyl-1H-pyrrolo[2,3-b]pyridine-6-carboxamide]", "EC50": 31}
{"smiles": "Cn1cc(-c2ccc(Cc3cc(C(=O)NC4CCOCC4O)nc4c3ccn4C)cc2)cn1", "note": "(racemic) [Example 56, Racemic trans-N-(3-Hydroxytetrahydropyran-4-yl)-4-[4-(1-methyl-1H-pyrazol-4-yl)benzyl]-1-methyl-1H-pyrrolo[2,3-b]pyridine-6-carboxamide]", "EC50": 38}
{"smiles": "CN1CCOc2c(Cc3ccc(-n4cccn4)cc3)cc(C(=O)N[C@H]3CCCC[C@@H]3O)nc21", "note": "[Example 129, N-[(1S,2S)-2-Hydroxycyclohexyl]-8-[4-pyrazol-1-ylbenzyl]-4-methyl-2H-pyrido[3,2-b][1,4]oxazine-6-carboxamide]", "EC50": 15}
{"smiles": "Cn1cc(-c2ccc(Cc3cc(C(=O)N[C@H]4CCCC[C@@H]4O)nc4c3ccn4C)c(F)c2)cn1", "note": "[Example 8, N-[(1S,2S)-2-Hydroxycyclohexyl]-4-[2-fluoro-4-(1-methyl-1H-pyrazol-4-yl)benzyl]-1-methyl-1H-pyrrolo[2,3-b]pyridine-6-carboxamide]", "EC50": 17}
{"smiles": "Cn1ccc2c(Cc3ccc(-c4cscn4)cc3)cc(C(=O)N[C@@H]3CCOC[C@H]3O)nc21", "note": "(single isomer, unassigned; isomer-i) [Example 54, trans-N-(3-Hydroxytetrahydropyran-4-yl)-4-[4-(thiazol-4-yl)benzyl]-1-methyl-1H-pyrrolo[2,3-b]pyridine-6-carboxamide (Isomer-I)]", "EC50": 764}
{"smiles": "COc1ccc(Cc2cc(C(=O)N[C@@H]3CCOC[C@H]3O)nc3c2ccn3C)cc1", "note": "(single isomer, unassigned; isomer-ii) [Example 61, trans-N-(3-Hydroxytetrahydropyran-4-yl)-4-(4-methoxybenzyl)-1-methyl-1H-pyrrolo[2,3-b]pyridine-6-carboxamide (Isomer-II)]", "EC50": 222}
{"smiles": "Cn1ccc2nc(C(=O)N[C@H]3CCCC[C@@H]3O)cc(Cc3ccc(F)cc3)c21", "note": "[Example 137, N-[(1S,2S)-2-Hydroxycyclohexyl]-7-(4-fluorobenzyl)-1-methyl-1H-pyrrolo[3,2-b]pyridine-5-carboxamide]", "EC50": 641}
{"smiles": "Cn1ccc2c(Cc3ccncc3)cc(C(=O)N[C@H]3CCCC[C@@H]3O)nc21", "note": "[Example 14, N-[(1S,2S)-2-Hydroxycyclohexyl]-4-(pyridin-4-ylmethyl)-1-methyl-1H-pyrrolo[2,3-b]pyridine-6-carboxamide]", "EC50": 891}
{"smiles": "Cn1ccc2c(Cc3ccc(-c4cscn4)cc3)cc(C(=O)N[C@@H]3CCOC[C@H]3O)nc21", "note": "(single isomer, unassigned; isomer-ii) [Example 55, trans-N-(3-Hydroxytetrahydropyran-4-yl)-4-[4-(thiazol-4-yl)benzyl]-1-methyl-1H-pyrrolo[2,3-b]pyridine-6-carboxamide (Isomer-II)]", "EC50": 32}
{"smiles": "Cn1ccc2c(Cc3ccnc(F)c3)cc(C(=O)NC3CCOCC3O)nc21", "note": "(single isomer, unassigned) [Example 38, Racemic trans-N-(3-Hydroxytetrahydropyran-4-yl)-4-(2-fluoropyridin-4-ylmethyl)-1-methyl-1H-pyrrolo[2,3-b]pyridine-6-carboxamide]", "EC50": 983}
{"smiles": "O=C(N[C@@H]1CCOC[C@H]1O)c1cc(Cc2ccc(F)cc2)c2c(n1)OCCO2", "note": "(single isomer, unassigned) [Example 113, trans-N-(3-Hydroxytetrahydropyran-4-yl)-8-(4-fluorobenzyl)-2,3-dihydro-[1,4]dioxino[2,3-b]pyridine-6-carboxamide (Isomer-IT)]", "EC50": 136}
{"smiles": "Cn1ccc2c(Cc3ccc(F)cc3)cc(C(=O)N[C@@H]3CCOC[C@@H]3O)nc21", "note": "(racemic) [Example 35, Racemic cis-N-(3-Hydroxytetrahydropyran-4-yl)-4-(4-fluorobenzyl)-1-methyl-H-pyrrolo[2,3-b]pyridine-6-carboxamide]", "EC50": 1470}
{"smiles": "Cn1ccc2c(Cc3ccc(Cl)nc3)cc(C(=O)N[C@H]3CCOC[C@H]3O)nc21", "note": "(single isomer, unassigned; isomer-i) [Example 49, cis-N-(3-Hydroxytetrahydropyran-4-yl)-4-(2-chloropyridin-5-ylmethyl)-1-methyl-1H-pyrrolo[2,3-b]pyridine-6-carboxamide (Isomer-I)]", "EC50": 1410}
{"smiles": "Cn1ccc2c(Cc3ccc(-c4cscn4)cc3)cc(C(=O)NCC(C)(C)O)nc21", "note": "[Example 24, N-(2-Hydroxy-2-methylpropyl)-4-[4-(thiazol-4-yl)benzyl]-1-methyl-1H-pyrrol[2,3-b]pyridine-6-carboxamide]", "EC50": 834}
{"smiles": "Cn1ccc2c(Cc3ccc(-n4cccn4)cc3)cc(C(=O)N[C@H]3CCCC[C@@H]3O)nc21", "note": "[Example 6, N-[(1S,2S)-2-Hydroxycyclohexyl]-4-(4-pyrazol-1-ylbenzyl)-1-methyl-1H-pyrrolo[2,3-b]pyridine-6-carboxamide]", "EC50": 15}
{"smiles": "Cn1ccc2c(Cc3ccc(Cl)nc3)cc(C(=O)N[C@H]3CCOC[C@H]3O)nc21", "note": "(single isomer, unassigned; isomer-ii) [Example 50, cis-N-(3-Hydroxytetrahydropyran-4-yl)-4-(2-chloropyridin-5-ylmethyl)-1-methyl-1H-pyrrolo[2,3-b]pyridine-6-carboxamide (Isomer-II)]", "EC50": 2920}
{"smiles": "Cn1cc(-c2ccc(Cc3cc(C(=O)N[C@H]4CCCC[C@@H]4O)nc4c3OCCO4)cc2)cn1", "note": "[Example 106, N-[(1S,2S)-2-Hydroxycyclohexyl]-8-[4-(1-methyl-1H-pyrazol-4-yl)-benzyl]-2,3-dihydro-[1,4]dioxino[2,3-b]pyridine-6-carboxamide]", "EC50": 14}
{"smiles": "Cc1ncccc1-c1ccc(Cc2cc(C(=O)N[C@H]3CCCC[C@@H]3O)nc3c2ccn3C)cc1", "note": "[Example 21, N-[(1S,2S)-2-Hydroxycyclohexyl]-4-[4-(2-methylpyridin-3-yl)benzyl]-1-methyl-1H-pyrrolo[2,3-b]pyridine-6-carboxamide]", "EC50": 1050}
{"smiles": "O=C(N[C@@H]1CCOC[C@H]1O)c1cc(Cc2ccc(F)cc2)c2c(n1)CNCC2", "note": "(single isomer, unassigned; isomer-ii) [Example 98, trans-N-(3-Hydroxytetrahydropyran-4-yl)-4-(4-fluorobenzyl)-5,6,7,8-tetrahydro[1,7]naphthyridine-2-carboxamide Hydrochloride (Isomer-II)]", "EC50": 109}
{"smiles": "COc1ccc(Cc2cc(C(=O)N[C@H]3CCCC[C@@H]3O)nc3c2OCCO3)cc1", "note": "[Example 104, N-[(1S,2S)-2-Hydroxycyclohexyl]-8-(4-methoxybenzyl)-2,3-dihydro-[1,4]dioxino[2,3-b]pyridine-6-carboxamide]", "EC50": 231}
{"smiles": "Cn1ccc2c(Cc3cccc(F)c3F)cc(C(=O)N[C@H]3CCCC[C@@H]3O)nc21", "note": "[Example 16, N-[(1S,2S)-2-Hydroxycyclohexyl]-4-(2,3-difluorobenzyl)-1-methyl-1H-pyrrolo[2,3-b]pyridine-6-carboxamide]", "EC50": 1290}
{"smiles": "Cn1ccc2c(Cc3ccc(F)cc3)cc(C(=O)N[C@@H]3CCOC[C@H]3O)nc21", "note": "(racemic) [Example 32, Racemic trans-N-(3-Hydroxytetrahydropyran-4-yl)-4-(4-fluorobenzyl)-1-methyl-1H-pyrrolo[2,3-b]pyridine-6-carboxamide]", "EC50": 486}
{"smiles": "Cn1ccc2c(Cc3ccc(F)cc3)cc(C(=O)N[C@H]3CCOC[C@H]3O)nc21", "note": "(single isomer, unassigned; isomer-i) [Example 36, cis-N-(3-Hydroxytetrahydropyran-4-yl)-4-(4-fluorobenzyl)-1-methyl-1H-pyrrolo[2,3-b]pyridine-6-carboxamide (Isomer-I)]", "EC50": 3170}
{"smiles": "CN1CCc2c(Cc3ccc(Cl)nc3)cc(C(=O)N[C@H]3CCCC[C@@H]3O)nc21", "note": "[Example 72, N-[(1S,2S)-2-Hydroxycyclohexyl]-4-(2-chloropyridin-5-ylmethyl)-1-methyl-2,3-dihydro-1H-pyrrolo[2,3-b]pyridine-6-carboxamide]", "EC50": 494}
{"smiles": "Cc1ccc(Cc2cc(C(=O)N[C@H]3CCCC[C@@H]3O)nc3c2ccn3C)cn1", "note": "[Example 9, N-[(1S,2S)-2-Hydroxycyclohexyl]-4-(2-methylpyridin-5-ylmethyl)-1-methyl-1H-pyrrolo[2,3-b]pyridine-6-carboxamide]", "EC50": 1570}
{"smiles": "Cn1ccc2c(Cc3ccnc(F)c3)cc(C(=O)N[C@@H]3CCOC[C@H]3O)nc21", "note": "(single isomer, unassigned; isomer-ii) [Example 40, trans-N-(3-Hydroxytetrahydropyran-4-yl)-4-(2-fluoropyridin-4-ylmethyl)-1-methyl-1H-pyrrolo[2,3-b]pyridine-6-carboxamide (Isomer-II)]", "EC50": 755}
